# Experimental data from article PMC8288134, “Synthesis, potential antitumor activity, cell cycle analysis, and multitarget mechanisms of novel hydrazones incorporating a 4-methylsulfonylbenzene scaffold: a molecular docking study” (Journal of Enzyme Inhibition and Medicinal Chemistry, 2021).
# Where two headings read alike, the source gives them in different places.
# Experiments:
# K-562 = assay: NCI antitumor screen (SRB); assay type: cell-based; conditions: Homo sapiens, K562, read-out: Growth inhibition percentage (GI%)
# HL-60(TB) = assay: cells; assay type: cell-based, human; conditions: Homo sapiens, HL-60, HL-60(TB); one dose 10 µM; read-out: Growth inhibition percentage (GI%)
# NCI-H522 = assay: NCI antitumor screen (SRB); assay type: cell-based; conditions: Homo sapiens
# PC-3 = assay: NCI antitumor screen (SRB); assay type: cell-based; conditions: Homo sapiens, one dose 10 µM, read-out: Growth inhibition percentage (GI%)
# [1] = test system: full panel of 59 cancer cell lines; assay: NCI antitumor screen, full panel; conditions: one dose 10 µM
# MOLT-4 = assay: NCI antitumor screen (SRB); assay type: cell-based; conditions: Homo sapiens, one dose 10 µM, read-out: Growth inhibition percentage (GI%)
# HT29 = assay: NCI antitumor screen (SRB); assay type: cell-based; conditions: Homo sapiens, HT-29, one dose 10 µM, read-out: Growth inhibition percentage (GI%)
# HOP-62 = assay: NCI antitumor screen (SRB); assay type: cell-based; conditions: Homo sapiens, HOP-62, read-out: Growth inhibition percentage (GI%)
# UO-31 = assay: NCI antitumor screen (SRB); assay type: cell-based, human; conditions: Homo sapiens, one dose 10 µM, read-out: Growth inhibition percentage (GI%)
# NCI-H226 = assay: NCI antitumor screen (SRB); assay type: cell-based; conditions: Homo sapiens, one dose 10 µM, read-out: Growth inhibition percentage (GI%)
# A498 = assay: NCI antitumor screen (SRB); assay type: cell-based; conditions: Homo sapiens, one dose 10 µM, read-out: Growth inhibition percentage (GI%)
# SK-OV-3 = assay: NCI antitumor screen (SRB); assay type: cell-based; conditions: Homo sapiens, one dose 10 µM, read-out: Growth inhibition percentage (GI%)
# T-47D = assay: NCI antitumor screen (SRB); assay type: cell-based; conditions: Homo sapiens, T47D, one dose 10 µM, read-out: Growth inhibition percentage (GI%)
# CCRF-CEM = assay: NCI antitumor screen (SRB); assay type: cell-based; conditions: Homo sapiens, one dose 10 µM, read-out: Growth inhibition percentage (GI%)
# A549/ATCC = assay: NCI antitumor screen (SRB); assay type: cell-based; conditions: Homo sapiens, one dose 10 µM, read-out: Growth inhibition percentage (GI%)
# SK-MEL-2 = assay: NCI antitumor screen (SRB); assay type: cell-based; conditions: Homo sapiens
# UACC-257 = assay: NCI antitumor screen (SRB); assay type: cell-based, human; conditions: Homo sapiens, one dose 10 µM, read-out: Growth inhibition percentage (GI%)
# OVCAR-8 = assay: NCI antitumor screen (SRB); assay type: cell-based; conditions: Homo sapiens, one dose 10 µM, read-out: Growth inhibition percentage (GI%)
# CAKI-1 = assay: NCI antitumor screen (SRB); assay type: cell-based; conditions: Homo sapiens, one dose 10 µM, read-out: Growth inhibition percentage (GI%)
# SR = assay: NCI antitumor screen (SRB); assay type: cell-based; conditions: Homo sapiens, one dose 10 µM, read-out: Growth inhibition percentage (GI%)
# HCT-116 = assay: NCI antitumor screen (SRB); assay type: cell-based; conditions: Homo sapiens, read-out: Growth inhibition percentage (GI%)
# U251 = assay: NCI antitumor screen (SRB); assay type: cell-based; conditions: Homo sapiens, U-251, one dose 10 µM, read-out: Growth inhibition percentage (GI%)
# SNB-75 = assay: NCI antitumor screen (SRB); assay type: cell-based; conditions: Homo sapiens, one dose 10 µM, read-out: Growth inhibition percentage (GI%)
# [2] = NCI-H522, read-out: Growth inhibition percentage (GI%)
# [3] = SK-MEL-2, read-out: Growth inhibition percentage (GI%)
SMILES,inhibition at 10 µM (K-562),inhibition at 10 µM (HL-60(TB)),inhibition at 10 µM (NCI-H522; [2]),inhibition at 10 µM (PC-3),PCE: positive cytotoxic effect (number of cell lines with GI 10 to 100% / total number of cell lines) [1],inhibition at 10 µM (MOLT-4),inhibition at 10 µM (HT29),inhibition at 10 µM (HOP-62),inhibition at 10 µM (UO-31; UO-31),inhibition at 10 µM (CCRF-CEM),inhibition at 10 µM (A549/ATCC),inhibition at 10 µM (SK-MEL-2; [3]),inhibition at 10 µM (UACC-257; UACC-257),also measured
CS(=O)(=O)c1ccc(C(=O)N/N=C/c2ccc(O)cc2)cc1 [Compound 11],26.2%,50.5%,11.7%,10.9%,5/59,32.5%,,,,,,,,
"CS(=O)(=O)c1ccc(C(=O)NN=Cc2cccnc2)cc1 [Compound 5, 4-(Methylsulfonyl)-N'-(pyridin-3-ylmethylene)benzohydrazide]",18.8%,20.5%,15.1%,17.9%,13/59,,13.3%,16.5%,16.3%,11.1%,10.6%,,,inhibition at 10 µM (NCI-H226): 11.9%; inhibition at 10 µM (A498): 11.2%; inhibition at 10 µM (SK-OV-3): 16.9%; inhibition at 10 µM (T-47D): 13.7%
"CS(=O)(=O)c1ccc(C(=O)NN=Cc2ccc(Cl)cc2)cc1 [Compound 7, N'-(4-Chlorobenzylidene)-4-(methylsulfonyl)benzohydrazide]",14%,52.1%,15.7%,22.8%,7/59,29.4%,,,,,,12.8%,,inhibition at 10 µM (A498): 12.3%
"CN(C)c1ccc(C=NNC(=O)c2ccc(S(C)(=O)=O)cc2)cc1 [Compound 12, N'-(4-(Dimethylamino)benzylidene)-4-(methylsulfonyl)benzohydrazide]",17.2%,38%,40.4%,,9/59,29.8%,20.5%,11.4%,11.2%,,28.4%,,39.2%,
"CS(=O)(=O)c1ccc(C(=O)NN=Cc2ccccc2F)cc1 [Compound 14, N'-(2-Fluorobenzylidene)-4-(methylsulfonyl)benzohydrazide]",25.7%,36%,26%,,12/59,26.4%,18.6%,15.8%,,,29.3%,,42.4%,inhibition at 10 µM (OVCAR-8): 14.5%; inhibition at 10 µM (CAKI-1): 11.7%; inhibition at 10 µM (SR): 49.2%; inhibition at 10 µM (T-47D): 11.8%
"CS(=O)(=O)c1ccc(C(=O)NN=Cc2ccc(F)cc2)cc1 [Compound 8, N'-(4-Fluorobenzylidene)-4-(methylsulfonyl)benzohydrazide]",13.6%,23.1%,15.9%,,9/59,23.9%,,,,11.8%,11.1%,,18.4%,inhibition at 10 µM (SR): 20.2%; inhibition at 10 µM (HCT-116): 10.8%
"CS(=O)(=O)c1ccc(C(=O)NN=Cc2ccccc2)cc1 [Compound 4, N'-Benzylidene-4-(methylsulfonyl)benzohydrazide]",11.3%,60.3%,42.1%,,10/59,25.5%,,12%,,,28.5%,21.5%,44.2%,inhibition at 10 µM (OVCAR-8): 15.1%; inhibition at 10 µM (U251): 20.4%
"COc1ccc(C=NNC(=O)c2ccc(S(C)(=O)=O)cc2)cc1OC [Compound 21, N'-(3,4-Dimethoxybenzylidene)-4-(methylsulfonyl)benzohydrazide]",19.1%,45.9%,15.7%,11.5%,8/59,34.1%,,,,,,,,inhibition at 10 µM (CAKI-1): 11%; inhibition at 10 µM (HCT-116): 11%; inhibition at 10 µM (SNB-75): 14.2%
COc1cc(OC)c(OC)cc1/C=N/NC(=O)c1ccc(S(C)(=O)=O)cc1 [Compound 24],,,,18.6%,8/59,21.4%,17.9%,,,,17.1%,,,"inhibition at 10 µM (SK-MEL-2; SK-MEL-2, one dose 10 µM, read-out: Growth inhibition percentage (GI%)): 11.7%; inhibition at 10 µM (UACC-257; UACC-257, UACC-257): 21.6%; inhibition at 10 µM (UO-31; UO-31, UO-31): 10.5%; inhibition at 10 µM (NCI-H522; NCI-H522, one dose 10 µM, read-out: Growth inhibition percentage (GI%)): 39.8%"
"CS(=O)(=O)c1ccc(C(=O)NN=Cc2ccc3c(c2)OCO3)cc1 [Compound 22, N'-(Benzo[d][1,3]dioxol-5-ylmethylene)-4-(methylsulfonyl)benzohydrazide]",14.5%,43%,14%,,9/59,29.9%,11%,,,13%,32.3%,10.9%,40.9%,
COc1cc(/C=N/NC(=O)c2ccc(S(C)(=O)=O)cc2)ccc1O [Compound 19],27.2%,67.3%,37.7%,,13/59,30.9%,17.5%,12.1%,12.8%,,29.3%,13.9%,48.4%,inhibition at 10 µM (OVCAR-8): 19.6%; inhibition at 10 µM (U251): 13%; inhibition at 10 µM (SR): 18.5%
"CS(=O)(=O)c1ccc(C(=O)NN=Cc2ccccc2Cl)cc1 [Compound 13, N'-(2-Chlorobenzylidene)-4-(methylsulfonyl)benzohydrazide]",32.5%,47.7%,,,10/59,32.3%,,12.7%,15.7%,,21.6%,,35.5%,inhibition at 10 µM (SK-OV-3): 11.7%; inhibition at 10 µM (T-47D): 12.5%; inhibition at 10 µM (SNB-75): 15.1%
"COc1ccc(C=NNC(=O)c2ccc(S(C)(=O)=O)cc2)cc1 [Compound 10, N'-(4-Methoxybenzylidene)-4-(methylsulfonyl)benzohydrazide]",,42.9%,20.8%,13.8%,11/59,21.1%,10.8%,,,10.6%,29.8%,11.8%,29%,inhibition at 10 µM (OVCAR-8): 11.3%; inhibition at 10 µM (NCI-H226): 13.4%
"COc1ccccc1C=NNC(=O)c1ccc(S(C)(=O)=O)cc1 [Compound 15, N'-(2-Methoxybenzylidene)-4-(methylsulfonyl)benzohydrazide]",23.4%,36.5%,,19.1%,14/59,11.6%,,18.9%,14.4%,16.1%,11.9%,,10.1%,inhibition at 10 µM (NCI-H226): 10.3%; inhibition at 10 µM (SR): 15.6%; inhibition at 10 µM (SK-OV-3): 17.1%; inhibition at 10 µM (T-47D): 18.2%; inhibition at 10 µM (HCT-116): 10.7%
